Test [1] concerns citric acid-induced cough. Description: Citric Acid Induced Cough Model (direct antitussive activity). The class given is in vivo. Particulars: inhaled citric acid-induced cough, conscious guinea pigs; FIG. 4. As to the method: The directed antitussive activity of the compound in question if first assessed, by a 10 to 30 minute pretreatment period by intraperitoneal injection or a 1 hour pretreatment period for oral administration. The animals (guinea pigs) are then subjected to an inhaled citric acid-induced cough challenge. Inhalation of citric acid (CA; 0.4% for 1 minute) induced 11 to 15 coughs, during the exposure and 12-minute monitoring period in conscious guinea pigs.

The test system of test [2] is antigen-induced hypertussive response to citric acid. Description: Antigen-Induced Hypertussive Model (ovalbumin, citric acid challenge). The class given is in vivo. Particulars: sensitized guinea pigs exposed to inhaled ovalbumin. As to the method:
The effects of the compound are then assessed on the hypertussive response that occurs 72 hours post aerosol exposure to antigen or LTD4 exposure. Treatment of the animals occurs with the drug prior and/or after antigen or LTD4 challenge, but not on the day of citric acid challenge. Inhalation of citric acid (CA; 0.4% for 1 minute) induced 11 to 15 coughs, during the exposure and 12-minute monitoring period in conscious guinea pigs.

Test [3] relates to LTD4-induced hypertussive response and airway eosinophilia. Briefly: LTD4-Induced Hypertussive Model (citric acid challenge). Type of test: in vivo, guinea pigs. As to conditions: oral 30 mg/kg b.i.d., inhaled LTD4 10 ug/ml for 1 minute, 72 hours after exposure. As to the method:
The effects of the compound are then assessed on the hypertussive response that occurs 72 hours post aerosol exposure to antigen or LTD4 exposure. Treatment of the animals occurs with the drug prior and/or after antigen or LTD4 challenge, but not on the day of citric acid challenge. […] Similarly, inhalation of LTD4 (10 ug/ml for 1 minute) increased cough incidence and airway esoinophiles 72 hours after exposure.

Regarding `COc1nccc(-c2c(-c3ccc(F)cc3)ncn2[C@H]2CC[C@H](O)CC2)n1` [Compound I, trans-1-(4-Hydroxycyclohexyl)-4-(4-fluorophenyl)-5-[(2methoxy)pyrimidin-4-yl]imidazole], the direct antitussive effect result in test [1] is given as “no direct antitussive effect”. Moreover, in test [2] (bronchoalveolar lavage), the airway eosinophilia entry is “reduce airway eosinophilia”. In addition, in test [2] (citric acid challenge), the “hypertussive state (CA-induced cough incidence)” value is reported as “normalizes the hypertussive state”. Moreover, the LTD4-induced eosinophilia result in test [3] is “blocked the LTD4-induced esoinophilia”. Further, in test [3] (FIG. 5), the “cough response after LTD4” value is “normalized the cough response”.

These data come from patent US20040092532A1, “Use of p38 inhibitors for the treatment of smoke inhalation” (priority 2003, published 2004).
